The results in this text go back to publication PMC9320114 (Molecules, 2022).

Like-named read-outs stand apart in the source and are kept apart here.

In one experiment the target is T1, hMAO-B (Homo sapiens, UniProt P27338).
T1 construct: purchased Sigma Aldrich; host or cells: BTI-TN-5B1-4 baculovirus-infected insect cells
T1 sequence (P27338 1-520): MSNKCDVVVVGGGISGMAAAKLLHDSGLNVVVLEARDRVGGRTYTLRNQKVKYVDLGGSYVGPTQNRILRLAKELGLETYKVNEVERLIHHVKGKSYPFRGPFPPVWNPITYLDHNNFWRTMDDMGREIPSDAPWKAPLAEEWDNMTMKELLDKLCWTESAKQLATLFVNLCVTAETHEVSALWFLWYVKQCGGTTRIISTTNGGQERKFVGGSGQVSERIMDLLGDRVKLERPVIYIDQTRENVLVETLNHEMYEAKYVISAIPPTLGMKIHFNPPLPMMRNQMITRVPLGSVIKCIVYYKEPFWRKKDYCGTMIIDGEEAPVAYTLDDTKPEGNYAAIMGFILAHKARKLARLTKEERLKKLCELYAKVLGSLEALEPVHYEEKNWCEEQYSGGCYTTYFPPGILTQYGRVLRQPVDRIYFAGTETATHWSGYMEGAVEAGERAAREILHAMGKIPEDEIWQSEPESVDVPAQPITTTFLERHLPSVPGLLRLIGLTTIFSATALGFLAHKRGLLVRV
The experiment can be described thus: biochemical. Conditions: for IC50: IC50 ± SEM. The source says:
(§1) The effects of the compounds on hMAO-A and hMAO-B were investigated using a fluorimetric assay, following a method previously described in the literature. Recombinant human microsomal hMAO enzymes expressed in BTI-TN-5B1-4 baculovirus-infected insect cells, horseradish peroxidase (HRP, type II, lyophilized powder), and p-tyramine hydrochloride were purchased from Sigma Aldrich. 10-Acetyl-3,7-dihydroxyphenoxazine (Amplex Red reagent) was synthesized as described in the literature.
After preincubation, the reaction was started by adding final concentrations of 200 µM Amplex Red reagent, 2 U/mL HRP, and 1 mM p-tyramine hydrochloride. Resorufin production was quantified based on the fluorescence produced (λex = 530 nm; λem = 590 nm) at 37 °C over a 20 min period. For the control experiments, DMSO was used instead of appropriate dilutions of the compounds in DMSO. For the determination of blank (b), the enzyme solution was replaced by a phosphate-buffered solution. Initial velocities were calculated from the obtained trend, with each measurement performed in duplicate. Specific fluorescence emission to determine the final results was calculated after subtracting the blank activity (b). Inhibitory potencies were expressed as RAs, and IC50 values were calculated as described in the section “Inhibition of hBChE and mAChE” above.

The target in a further experiment is T2, hMAO-A (Homo sapiens, UniProt P21397).
T2 construct: purchased Sigma Aldrich; host or cells: BTI-TN-5B1-4 baculovirus-infected insect cells
T2 sequence (P21397 1-527): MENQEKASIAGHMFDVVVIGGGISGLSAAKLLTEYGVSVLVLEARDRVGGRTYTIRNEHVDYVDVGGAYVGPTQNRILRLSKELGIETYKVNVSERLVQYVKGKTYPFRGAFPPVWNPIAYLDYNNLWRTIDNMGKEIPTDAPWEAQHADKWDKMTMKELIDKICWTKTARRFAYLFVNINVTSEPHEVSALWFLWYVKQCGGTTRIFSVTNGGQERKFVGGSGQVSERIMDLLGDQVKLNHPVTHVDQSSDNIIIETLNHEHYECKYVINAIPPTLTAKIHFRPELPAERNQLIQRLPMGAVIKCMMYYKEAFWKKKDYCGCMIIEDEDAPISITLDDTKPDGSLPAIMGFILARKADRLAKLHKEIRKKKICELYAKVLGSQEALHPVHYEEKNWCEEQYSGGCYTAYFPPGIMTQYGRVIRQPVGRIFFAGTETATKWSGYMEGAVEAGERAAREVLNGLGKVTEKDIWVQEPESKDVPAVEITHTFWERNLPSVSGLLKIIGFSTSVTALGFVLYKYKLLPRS
Kind of experiment: Inhibition of hMAO-A, fluorimetric Amplex Red assay. It counts as biochemical. Conditions: residual activity at 10 µM. How it is done: as §1
Briefly, 100 µL of 50 mM sodium phosphate buffer (pH 7.4, 0.05% (v/v) Triton X-114), containing the compounds and hMAO-A or hMAO-B, was incubated for 15 min at 37 °C in a flat-bottomed black 96-well microplate protected from ambient light. After preincubation, the reaction was started by adding final concentrations of 200 µM Amplex Red reagent, 2 U/mL HRP, and 1 mM p-tyramine hydrochloride. Resorufin production was quantified based on the fluorescence produced (λex = 530 nm; λem = 590 nm) at 37 °C over a 20 min period. For the control experiments, DMSO was used instead of appropriate dilutions of the compounds in DMSO. For the determination of blank (b), the enzyme solution was replaced by a phosphate-buffered solution. Initial velocities were calculated from the obtained trend, with each measurement performed in duplicate. Specific fluorescence emission to determine the final results was calculated after subtracting the blank activity (b). Inhibitory potencies were expressed as RAs, and IC50 values were calculated as described in the section “Inhibition of hBChE and mAChE” above.

The next experiment concerns the target MurC (Escherichia coli, UniProt P17952). Kind of experiment: Inhibition of MurC, colorimetric malachite green method. It counts as biochemical, bacterial. Conditions: for remaining activity at 50 µM / remaining activity at 100 µM: 0.25 h; for remaining activity at 50 µM: read-out: MurC (RA [%]); for remaining activity at 100 µM: residual activity at 100 µM, read-out: MurC RA (%). As for the experimental part:
(§2) Inhibition of Mur enzymes was monitored with the colorimetric malachite green method, which measured orthophosphate formed during reaction. The mixtures with a final volume of 50 µL contained:
MurC: 50 mM HEPES-NaOH, pH 8.0, 5 mM MgCl2, 0.005% Triton X-114, 120 µM L-Ala, 120 µM UDP-N-acetyl-muramic acid, 450 µM ATP, purified MurC, and 50 or 100 µM of each compound tested.
(§3) All compounds were soluble in the assay mixtures containing 5% DMSO (v/v). After incubation for 15 min (20 min for DdlB) at 37 °C, the enzyme reaction was terminated by addition of Biomol® reagent (100 µL) and absorbance was measured after 5 min at 650 nm (Synergy™ H4 microplate reader; BioTek Instruments, Inc., BioTek Gen5 Data Analysis Software, version 2.9, Santa Clara, CA, USA). All experiments were performed in duplicate.

Another experiment addresses DdlB (Escherichia coli, UniProt P07862). The experiment can be described thus: Inhibition of DdlB, colorimetric malachite green method. It counts as biochemical, bacterial. As to conditions: 20 min, read-out: DdlB (RA [%]). How it is done:
as §2
DdlB: 50 mM HEPES-NaOH, pH 8.0, 5 mM MgCl2, 6.5 mM (NH4)2SO4, 10 mM KCl, 0.005% Triton X-114, 700 µM D-Ala, 500 µM ATP, purified DdlB, and 50 µM of each compound tested.
as §3

Where [1] appears, read: residual activity at 10 µM, Mini Library screen, Table S1, read-out: hMAO-B (RA [%]).
Setting [2] is: Mini Library screen, Table S1, read-out: hMAO-A (RA [%]).
Where [3] appears, read: residual activity at 10 µM, Table 3, read-out: hMAO-B RA (%).
[4] abbreviates: Table 3, read-out: hMAO-A RA (%).

MurC, sequence (P17952 whole entry): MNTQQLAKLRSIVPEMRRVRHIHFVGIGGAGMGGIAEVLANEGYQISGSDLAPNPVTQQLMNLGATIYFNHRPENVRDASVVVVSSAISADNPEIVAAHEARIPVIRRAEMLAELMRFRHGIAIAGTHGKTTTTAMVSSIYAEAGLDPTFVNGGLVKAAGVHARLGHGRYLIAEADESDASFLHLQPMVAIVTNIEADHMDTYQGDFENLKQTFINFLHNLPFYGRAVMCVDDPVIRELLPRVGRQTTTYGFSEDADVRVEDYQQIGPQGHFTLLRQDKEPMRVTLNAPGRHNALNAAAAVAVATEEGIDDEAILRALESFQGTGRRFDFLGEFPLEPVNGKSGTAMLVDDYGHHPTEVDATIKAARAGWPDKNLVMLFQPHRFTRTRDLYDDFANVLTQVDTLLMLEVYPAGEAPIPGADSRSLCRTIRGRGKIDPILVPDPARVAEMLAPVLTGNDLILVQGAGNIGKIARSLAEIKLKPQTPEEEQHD

For the compound `CCCCCCN(Cc1ccc(C#Cc2ccc(CCCC)cc2)cc1)C(=O)c1ccc(O)c(C(=O)O)c1` [MS-ML25], the results for the remaining activity at 10 µM on hMAO-B (setting [1]) and at hMAO-A (setting [2]) were 77% and 73%, respectively. For the same compound, the remaining activity at 50 µM on MurC stood at 98%; on DdlB it was 114%.
For `CCCCCCN(Cc1ccc(C#Cc2ccc(CCCC)cc2)cc1)c1ccc(O)c(C(=O)O)c1` [MS-ML24] the same measures were 64%, 57%, 83% and 116%.
`O=C(Nc1ccc(Oc2ccncc2)cc1)Nc1cc(C(F)(F)F)ccc1-n1cncn1` [MS-ML80] had an IC50 at hMAO-B (Table 3) of 0.405 ± 0.076 µM. The remaining activity at 10 µM came to 11% at hMAO-B (setting [1]), 10% at hMAO-B (setting [3]), 82% at hMAO-A (setting [2]) and 78% at hMAO-A (setting [4]). For the same compound, the figures for the remaining activity at 50 µM on MurC and on DdlB were 96% and 94%, respectively.
With `CCCCc1nc2ccn(Cc3ccccc3)c(=O)c2n1Cc1ccc(-c2ccccc2-c2nnn[nH]2)cc1` [MS-ML03], the remaining activity at 10 µM at hMAO-B (setting [1]) was determined as 97%; on hMAO-A (setting [2]), 83%. On MurC, the IC50 was determined as 85 ± 15 µM. For the same compound, the remaining activity at 50 µM is 61% at MurC and 81% at DdlB. In addition, on MurC (Table 2), the remaining activity at 100 µM worked out at 40%.
As for `CCCCCCN(Cc1ccc(C#Cc2ccc(CCCC)cc2)cc1)c1ccc(F)c(C(=O)O)c1` [MS-ML26], the remaining activity at 10 µM on hMAO-B (setting [1]) stood at 92%; at hMAO-A (setting [2]), 60%. In addition, the remaining activity at 50 µM at MurC amounted to 73%; on DdlB it was 114%.
For `Oc1ccc2[nH]cc(CCCCN3CC=C(c4ccccc4)CC3)c2c1` [MS-ML11] the same measures were 45%, 31%, 89% and 95%.
For the compound `C1=C(c2ccccc2)CCN(CCCCc2c[nH]c3ccccc23)C1` [MS-ML10], the remaining activity at 10 µM turned out to be 82% on hMAO-B (setting [1]) and 75% on hMAO-A (setting [2]). The remaining activity at 50 µM at MurC amounted to 74%; on DdlB, 96%.
As to `CCCCc1nc2ccn(CC(=O)N3CCCCC3)c(=O)c2n1Cc1ccc(-c2ccccc2S(=O)(=O)NC(=O)OCc2ccccc2)cc1F` [MS-ML05], the values for the remaining activity at 10 µM at hMAO-B (setting [1]) and on hMAO-A (setting [2]) were 93% and 79%, respectively. Besides, the remaining activity at 50 µM is 55% at MurC and 91% at DdlB. The remaining activity at 100 µM on MurC (Table 2) turned out to be 32%. For the same compound, the IC50 on MurC (Table 2, IC50 ± SEM, read-out: MurC IC50) amounted to 101 ± 23 µM.
Turning to `O=C(OC[C@H]1CCCN1c1ccnc2ncnn12)c1ccc(Oc2ccccc2)nc1` [MS-ML31], it took 0.912 ± 0.122 µM to reach half-maximal inhibition against hMAO-B (Table 3) (IC50). Moreover, the remaining activity at 10 µM at hMAO-B (setting [1]) was 13%; on hMAO-B (setting [3]), 17%; on hMAO-A (setting [2]), 78%; on hMAO-A (setting [4]) it was 98%. Also, on hMAO-B (residual activity at 10 µM, Table S3), the “hMAO-B RA [%]” value turned out to be 17%. On hMAO-A (Table S3), the “hMAO-A RA [%]” value came to 98%. The values for the remaining activity at 50 µM at MurC and on DdlB were 94% and 98%, respectively.
